# According to US8975234B2, “Anti-bacterial infection, inflammation, and leukemia composition and use thereof” (priority 2011, dated 2015):
# Experiments:
# [1] = tested on: LPS-induced NO in RAW264.7 cells; experiment: NO production analysis (Griess reagent); assay type: cell-based, mouse; conditions: before or after LPS, 25 and 50 μM statistically significant
# Experimental: Murine macrophage cells were plated in each well on a 12-well plate at a density of about 4×10^5 RAW264.7 cells/mL. After overnight incubation, cells were serum starved in DMEM medium containing 2% Fetal Bovine Serum (FBS) for 3 hours. […] Endogenous NO production, induced by LPS. Cells were treated with Tellimagrandin II at various concentrations (10, 25 and 50 μM) before and after being treated with LPS. For NO production analysis, culture supernatants were brought to 96-well plate and mixed with Griess reagent. Plates were incubated and then the absorbance was measured at 520 nm. Sodium nitrite (NaNO2) solution (0 M˜0.1 M, 8 points) prepared in DMEM was used to generate a standard curve. The nitrite concentrations of samples were determined by interpolation from the standard curve. […] FIG. 10 is framed by a an x-axis labeled the relative order in LPS or Tellimagrandin II treatment and concentrations, and y-axis labeled NO concentration. The control (LPS only) and test groups were compared using a t-test, *p<0.05 (significant) and #p<0.01 (highly significant).
# [2] = tested on: K-562 cells; experiment: Western blotting of apoptosis and cell cycle proteins; assay type: cell-based, human; conditions: 40 and 50 μM, 48 hours
# Experimental: A total of 3 mL cell solution at the concentration of 1×10^6K-562 cells per mL was cultured in 6 cm cell culture dish in an incubator supplied with 5% CO2 at 37° C. for 30 minutes so that cells could adapt to the environment. Tellimagrandin II solutions of different concentrations were added by order so that the final concentrations are 0, 40 and 50 μM, respectively. The solution was placed in incubator with 5% CO2 at 37° C. for 48 hours. After incubation, it was centrifuged at 1,000 rpm at 4° C. for 5 minutes and rinsed by PBS once. RIPA buffer solution containing protease inhibitors was added to decompose the cells.
# The solution was rapidly frozen with liquid nitrogen and unfrozen for three times to ensure that cells had been broken by the physical damages. The solution was centrifuged at 15,000 rpm at 4° C. for 30 minutes; the supernatant containing total cell protein was collected. Protein concentrations were determined by BCA protein assay. Finally, equal amounts of protein samples (40 μg) were boiled in 1× loading buffer for 3 minutes to decompose protein into primary structure for further protein gel electrophoresis (or stored at −80° C.).
# SDS-PAGE 10% or 12% was selected by the desired protein molecular weight in the protein gel electrophoresis (150 V, 17 mA for 2 hour and 5 minutes). The protein was transferred from the gel to PVDF membrane using wet transfer procedure (100 V, 300 mA for 30 minutes). The membrane was blocked at room temperature for one hour in Tris-buffered saline-Tween (TBS-T) buffer solution containing 2% Bovine serum albumin (BSA) to eliminate non-specifically binding.
# PVDF membrane was probed with primary antibody diluted with by the recommended amount according the manufacture in 2% BSA-TBS-T buffer solution at 4° C. for 16 to 18 hours. After the interaction completed, TBS-T buffer solution was used to rinse out the non-specifically bound primary antibody. TBS-T buffer solution was changed every 10 minutes for three times in about 30 minutes. Then, specific secondary antibody was added for interaction at room temperature for one hour. TBS-T buffer solution was used to rinse out the non-specifically bound secondary antibody. TBS-T buffer solution was changed every 10 minutes for six times in about 60 minutes. ECL System (Enhanced chemiluminescence system) was used and film was exposed to light and developed. Finally qualitative analysis was performed. […] Protein related to cell cycle regulation includes G2/M checkpoint regulators, Cyclin B1 and Cdc-25C.
# [3] = DPPH scavenging assay
# Experimental: Test reagents, natural extracts and Vitamin C (ascorbic acid) were dissolved in methanol to make a stock solution 10×. Vitamin C was used as the positive control. 120 μM DPPH solution was prepared. Taken 20 μL of stock reagents, natural extracts and Vitamin C on a 96-well microplate, and methanol was added to make up to the total volume of 100 μL. Control was 100 μL methanol. Each sample was mixed with 100 μL DPPH solution and incubated in the dark for 40 minutes. DPPH level of each well was evaluated by detecting the optical density of each well at 517 nm and the results were shown in Table 5.
# [4] = tested on: bacteria; experiment: Transmission electron microscopy of treated bacteria; assay type: cell-based; conditions: 40 μg/mL; cultured for 10 minutes; compared with control group
# Experimental: Before observed by TEM, the bacteria were cultured overnight on plate, collected and suspended in either 10 mL MHB or 10 mL MHB containing 40 μg/mL Tellimagrandin II. The bacterial solution were diluted to an optical density at 600 nm (OD600) of 0.1, and cultured for 10 minutes or 24 hours. Then, the cells were centrifuged at 10,000 rpm/min and suspended in the fixing fluid, the fixed time can not exceed 24 hours. The sample for TEM was sent to departments of Laboratory Medicine and Clinical Research, Kaohsiung Medical University Hospital (Kaohsiung, Taiwan, ROC).
# [5] = tested on: MRSA 19615; experiment: Minimum inhibitory concentration (broth microdilution) and FIC index; assay type: cell-based, Staphylococcus aureus; conditions: Staphylococcus aureus, MRSA, read-out: Minimum inhibitory concentration
# [6] = tested on: MRSA 18271; experiment: as above; assay type: cell-based, Staphylococcus aureus; conditions: Staphylococcus aureus, MRSA, read-out: Minimum inhibitory concentration
# [7] = tested on: MRSA 18631; experiment: as above; assay type: cell-based, Staphylococcus aureus; conditions: Staphylococcus aureus, MRSA, read-out: Minimum inhibitory concentration
# [8] = tested on: Heme oxygenase-1 (HO-1) in RAW264.7 cells; experiment: Western blot analysis of Heme oxygenase-1 (HO-1); assay type: cell-based, mouse; conditions: 25 or 50 μM with LPS, 24 hours
# Experimental: The murine macrophage RAW264.7 cells were plated in 6 cm cell dishes at a seeding density of 5×10^6 cells/mL and incubated overnight. After overnight incubation, cells were treated with different concentrations of Tellimagrandin II (10, 25 and 50 μM) and LPS and incubated for 24 hours. Cells were washed twice with PBS, scraped and lysed on ice in RIPA buffer, and proteins were obtained. Heme oxygenase-1 expression was analyzed by Western blotting of the whole cell lysates. […] In FIG. 12, the first bar represents the control group, the second bar represents the test group with LPS only and the third, the fourth and fifth bars represent the test groups with 10, 25 and 50 […] Tellimagrandin II (N=3, Mean±SD).
compound,measurement,setting,value
O=C(OC1O[C@@H]2COC(=O)c3cc(O)c(O)c(O)c3-c3c(cc(O)c(O)c3O)C(=O)O[C@H]2[C@H](OC(=O)c2cc(O)c(O)c(O)c2)[C@H]1OC(=O)c1cc(O)c(O)c(O)c1)c1cc(O)c(O)c(O)c1 (stereo partly drawn) [Tellimagrandin II],production of LPS-induced NO,[1],decreased the production of LPS-induced NO
same,Caspase-8 (inactive form),[2],decreases
same,"Caspase-9, Caspase-3, and Caspase-7",[2],activation
same,Cyclin B1 and Cdc-25C (non-phosphorylated) activity,[2],decreased
same,PARP,[2],ultimate activation
same,protein of anti-apoptosis Bcl-2,[2],decrease
same,DPPH free-radical scavenging activity,"[3]; 20 μg/mL, +FeCl2 (50 μM)",56.61 ± 4.05%
same,DPPH free-radical scavenging activity,"[3]; 20 μg/mL, −FeCl2",80.52 ± 0.4%
same,DPPH free-radical scavenging activity,"[3]; 40 μg/mL, +FeCl2 (50 μM)",57.43 ± 2.49%
same,DPPH free-radical scavenging activity,"[3]; 40 μg/mL, −FeCl2",79.47 ± 0.2%
same,phenotype of bacteria in electron microscopy,[4],unsmooth tooth surfaces
same,MIC,[5],128 µg/mL
same,MIC,[6],128 µg/mL
same,MIC,[7],128 µg/mL
same,Heme oxygenase-1 expression,[8],significant increases
